Source: the supplement of paper PMC6045584
± gives the standard deviation of the averaged measurements.

Key:
DASATINIB [1] = compound: T1, Cc1nc(Nc2ncc(C(=O)Nc3c(C)cccc3Cl)s2)cc(N2CCN(CCO)CC2)n1 [DASATINIB]; test: surviving fraction relative to DMSO-only wells; higher = less growth inhibition; conditions: exposure time: 5 days
Summary of the method: (§1)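 Log-phase tumour cells were seeded at 250–500 per well in 384-well plates and, from 24 hours after seeding, exposed continuously for five days to inhibitors at 0.5, 1, 5, 10, 50, 100, 500 and 1000 nM. Surviving fraction is CellTiter-Glo luminescence normalised to the median of DMSO-only wells. Luminescence was measured after 10 minutes at room temperature, and only lines screened three times with replicate Pearson r >0.7 and median Z' >0.3 were kept.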

OLAPARIB = compound: O=C(c1cc(Cc2n[nH]c(=O)c3ccccc23)ccc1F)N1CCN(C(=O)C2CC2)CC1 [OLAPARIB]; test: as above; conditions: exposure time: 5 days
Summary of the method: as §1

DASATINIB [2] = compound: T1, DASATINIB; test: area under dose-response curve of surviving fraction (unscaled, Aref=0) (surviving fraction x log10(nM)); higher = more resistant; conditions: exposure time: 5 days; dose range 0.5-1000 nM
Summary of the method: (§2)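 Each tumour cell line was screened three times in 384-well plates, receiving eight inhibitor concentrations from 0.5 to 1000 nM for five days. CellTiter-Glo luminescence gave viability, normalised to DMSO-only wells. Using the drc R package, surviving fractions were fitted with 3-parameter logistic dose-response curves, and the unscaled activity area over log10 dose (Aref = 0) was taken as the area under the curve.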

TEMOZOLOMIDE = compound: Cn1nnc2c(C(N)=O)ncn2c1=O [TEMOZOLOMIDE]; test: as above; conditions: exposure time: 5 days; dose range 0.5-1000 nM
Summary of the method: as §2

MLN-4924 = compound: NS(=O)(=O)OC[C@@H]1C[C@@H](n2ccc3c(N[C@H]4CCc5ccccc54)ncnc32)C[C@@H]1O [MLN-4924]; test: as above; conditions: exposure time: 5 days; dose range 0.5-1000 nM
Summary of the method: as §2

Test System | surviving fraction (DASATINIB [1]; 0.5 nM) | surviving fraction (DASATINIB [1]; 1 nM) | surviving fraction (DASATINIB [1]; 5 nM) | surviving fraction (DASATINIB [1]; 10 nM) | surviving fraction (DASATINIB [1]; 50 nM) | surviving fraction (DASATINIB [1]; 100 nM) | surviving fraction (DASATINIB [1]; 500 nM) | surviving fraction (DASATINIB [1]; 1000 nM) | surviving fraction (OLAPARIB; 0.5 nM) | surviving fraction (OLAPARIB; 1 nM) | surviving fraction (OLAPARIB; 5 nM) | surviving fraction (OLAPARIB; 10 nM) | surviving fraction (OLAPARIB; 50 nM) | surviving fraction (OLAPARIB; 100 nM) | surviving fraction (OLAPARIB; 500 nM) | surviving fraction (OLAPARIB; 1000 nM) | area under dose-response curve (DASATINIB [2]) | area under dose-response curve (TEMOZOLOMIDE) | area under dose-response curve (MLN-4924)
G292 BONE | 0.94 ± 0.04 | 0.894 ± 0.036 | 0.811 ± 0.049 | 0.683 ± 0.032 | 0.348 ± 0.013 | 0.269 ± 0.033 | 0.213 ± 0.018 | 0.2077 ± 0.0011 | 1.01 ± 0.014 | 1.01 ± 0.037 | 1.01 ± 0.016 | 1.02 ± 0.017 | 0.977 ± 0.022 | 0.971 ± 0.046 | 0.872 ± 0.037 | 0.831 ± 0.02 | 1.79 | 3.33 | 2.51
HCC38 BREAST | 0.962 ± 0.17 | 0.868 ± 0.087 | 0.697 ± 0.043 | 0.896 ± 0.17 | 1.01 ± 0.18 | 0.911 ± 0.16 | 0.664 ± 0.1 | 0.583 ± 0.12 | 1.13 ± 0.12 | 1.04 ± 0.039 | 1.05 ± 0.26 | 1.05 ± 0.22 | 0.656 ± 0.17 | 0.6 ± 0.094 | 0.441 ± 0.098 | 0.432 ± 0.074 | 2.79 | 4.36 | 2.17
HCC70 BREAST | 1.03 ± 0.094 | 1.04 ± 0.027 | 1.15 ± 0.1 | 0.996 ± 0.079 | 0.902 ± 0.15 | 0.655 ± 0.057 | 0.574 ± 0.14 | 0.581 ± 0.16 | 1.15 ± 0.043 | 1.08 ± 0.038 | 1.13 ± 0.082 | 1.15 ± 0.049 | 1.1 ± 0.16 | 1.05 ± 0.064 | 0.983 ± 0.069 | 0.928 ± 0.12 | 2.81 | 3.54 | 2.21
HMLE3 BREAST | 0.898 ± 0.042 | 0.856 ± 0.067 | 0.856 ± 0.02 | 0.7 ± 0.013 | 0.776 ± 0.029 | 0.716 ± 0.043 | 0.588 ± 0.023 | 0.553 ± 0.033 | 1.01 ± 0.015 | 0.976 ± 0.039 | 1.09 ± 0.097 | 1.06 ± 0.057 | 0.972 ± 0.042 | 0.962 ± 0.12 | 0.911 ± 0.07 | 0.835 ± 0.072 | 2.46 | 3.48 | 2.48
HMT3552 BREAST | 0.913 ± 0.043 | 0.848 ± 0.067 | 0.705 ± 0.013 | 0.612 ± 0.063 | 0.259 ± 0.0081 | 0.15 ± 0.017 | 0.105 ± 0.0076 | 0.123 ± 0.021 | 0.96 | 0.909 | 0.92 | 0.865 | 1.07 | 0.858 | 0.913 | 0.742 | 1.53 | 3.67 | 2.14
HS578T BREAST | 0.862 ± 0.13 | 0.829 ± 0.15 | 0.669 ± 0.051 | 0.593 ± 0.044 | 0.343 ± 0.029 | 0.252 ± 0.04 | 0.125 ± 0.02 | 0.126 ± 0.012 | 0.886 ± 0.076 | 0.911 ± 0.043 | 0.937 ± 0.14 | 0.853 ± 0.12 | 0.837 ± 0.079 | 0.87 ± 0.061 | 0.713 ± 0.093 | 0.705 ± 0.066 | 1.56 | 3.09 | 2.37
